In patent US5506213A, “Adminstration of 2'-halo-2'-deoxy adenosine to treat inflammatory bowel disease” (priority 1994, dated 1996):

Experiments:
rheumatoid arthritis = experiment: CdA 5-day continuous infusion in rheumatoid arthritis patients: cell counts and joint parameters; assay type: in vivo, human
Protocol: FIG. 7 is a graph showing the results of a study of the cytotoxicity of CdA toward monocytes and lymphocytes of a rheumatoid arthritis patient receiving CdA therapy. A continuous intravenous infusion of CdA (0.1 mg/ml in isotonic saline) was administered at a dosage of 0.1 mg/kg per day for a five-day period. Monocyte numbers are shown as open squares and lymphocyte numbers are shown as closed diamonds. Three cycles of infusions of CdA were given, and are illustrated as open rectangles for the five-day time periods of each infusion at a position in the graph above the days in the treatment regimen on which infusions were given.
A study similar to that described in Example 1 was carried out with three patients having rheumatoid arthritis. In each instance, the patient had been unsuccessfully treated with methotrexate, a gold salt or penicillamine, which treatment had been stopped three weeks prior to the first treatment with CdA. […]
A specially trained nurse examined the number of swollen and painful joints in each of the patients prior to the start of each treatment. The values obtained are as listed for each patient.
PIP joint measurements refer to the total arthrocircameter measurements, in mm, of each proximal interphalangeal (PIP) joint, for each patient. Values are shown for each of the three patients.
Each patient was asked to rank his or her performance of nine function parameters on a 0 to 10 scale, 10 being the highest. These function parameters were: turning in bed, rising from a chair, buttoning buttons, combing hair, walking, turning knobs, climbing stairs, getting in and out of an automobile, and general well being. The total score on these nine parameters for each patient is listed as the performance index.

[1] = test system: DHL9, Increased ribonucleotide reduction; experiment: Direct comparative cytotoxicity assay (Table II), DHL9 increased ribonucleotide reduction; assay type: cell-based, human; conditions: Homo sapiens, 120 h, read-out: ID50: concentration that produced 50 percent reduction in all numbers after five days
Description: The two compounds, CdA and CAFdA, were also compared for in vitro activity against another group of human cell lines in a direct comparative assay.
^1 Concentration that produced 50 percent reduction in all numbers
^2 CEM cells are T lymphoblasts; DHL9 cells are lymphoblasts.

human monocytes = experiment: Cellular NAD, ATP and viability in human monocytes exposed to CdA; assay type: cell-based; conditions: CdA at 1 nM
Protocol: FIG. 5 is a graph showing the biochemical effects induced in human monocytes in vitro by exposure to […] CdA over a period of 16 hours. The effects of CdA exposure upon monocyte viability (open squares), NAD content (closed squares), RNA synthesis (open circles) and DNA strand breaks (ds-DNA; closed circles) are illustrated.
Cellular NAD content was measured in human monocytes following incubation in culture with CdA (1 nM). An alcohol dehydrogenase cycling assay as described in Jacobson and Jacobson (1976) Arch. Biochem. Biophys. 175:627-634 was used to measure NAD.
Monocytes, cultured and contacted as before described, were detached from the culture wells and were treated with perchloric acid (0.5M) for 10 minutes at 4 degrees C. The mixture was clarified and neutralized with KOH containing potassium phosphate buffer (0.33M) at pH 7.5.Monocyte ATP was quantitated in perchloric acid extracts by anion exchange HPLC, using a Whatman SAX column with an isocratic mobile phase consisting of KH2 PO4 (0.25M), KCl (0.5M) and acetonitrile (2 percent) at pH 3.6 following the procedures of Carson et al. (1980) Proc. Nat'l. Acad, Sci. USA, 77:6865-6869.
NAD^+ consumption for poly(ADP-ribose) synthesis is a known consequence of severe DNA damage in eukaryotic cells. […]

[2] = Pt. # 1, CdA treatment course 1
[3] = Pt. # 1, CdA treatment course 2
[4] = Pt. # 1, CdA treatment course 3
[5] = Pt. # 1, prior to start of CdA treatment course 1
[6] = Pt. # 1, prior to start of CdA treatment course 2
[7] = Pt. # 1, prior to start of CdA treatment course 3
[8] = Pt. # 2, CdA treatment course 1
[9] = Pt. # 2, CdA treatment course 2
[10] = Pt. # 2, CdA treatment course 3
[11] = Pt. # 2, prior to start of CdA treatment course 1
[12] = Pt. # 2, prior to start of CdA treatment course 2
[13] = Pt. # 2, prior to start of CdA treatment course 3
[14] = Pt. # 2, prior to start of CdA treatment course 4
[15] = Pt. # 2, prior to start of CdA treatment course 5
[16] = Pt. # 2, prior to start of CdA treatment course 6
[17] = Pt. # 3, CdA treatment course 1
[18] = Pt. # 3, CdA treatment course 2
[19] = Pt. # 3, CdA treatment course 3
[20] = Pt. # 3, prior to start of CdA treatment course 1
[21] = Pt. # 3, prior to start of CdA treatment course 2
[22] = Pt. # 3, prior to start of CdA treatment course 3
[23] = Pt. # 3, prior to start of CdA treatment course 4

Nc1nc(Cl)nc2c1ncn2[C@H]1C[C@H](O)[C@@H](CO)O1 [CdA, 2-chloro-9,1'-beta-D-2'-deoxyribosyladenine]
PIP Joint Measurement (Totals, in mm) (rheumatoid arthritis; [2]): 583 mm | Performance Index (total score on nine function parameters, each 0 to 10) (rheumatoid arthritis; [2]): 70 | PIP Joint Measurement (Totals, in mm) (rheumatoid arthritis; [3]): 612 mm | Performance Index (total score on nine function parameters, each 0 to 10) (rheumatoid arthritis; [3]): 33 | PIP Joint Measurement (Totals, in mm) (rheumatoid arthritis; [4]): 560 mm | Performance Index (total score on nine function parameters, each 0 to 10) (rheumatoid arthritis; [4]): 27 | Painful Joints (rheumatoid arthritis; [5]): 73/38 | Swollen Joints (rheumatoid arthritis; [5]): 51/47 | Painful Joints (rheumatoid arthritis; [6]): 39 | Swollen Joints (rheumatoid arthritis; [6]): 37 | Painful Joints (rheumatoid arthritis; [7]): 23 | Swollen Joints (rheumatoid arthritis; [7]): 25 | PIP Joint Measurement (Totals, in mm) (rheumatoid arthritis; [8]): 527 mm | Performance Index (total score on nine function parameters, each 0 to 10) (rheumatoid arthritis; [8]): 46 | PIP Joint Measurement (Totals, in mm) (rheumatoid arthritis; [9]): 526 mm | Performance Index (total score on nine function parameters, each 0 to 10) (rheumatoid arthritis; [9]): 28 | PIP Joint Measurement (Totals, in mm) (rheumatoid arthritis; [10]): 531 mm | Performance Index (total score on nine function parameters, each 0 to 10) (rheumatoid arthritis; [10]): 22 | PIP Joint Measurement (Totals, in mm) (rheumatoid arthritis; Pt. # 2, CdA treatment course 4): 498 mm | PIP Joint Measurement (Totals, in mm) (rheumatoid arthritis; Pt. # 2, CdA treatment course 5): 485 mm | PIP Joint Measurement (Totals, in mm) (rheumatoid arthritis; Pt. # 2, CdA treatment course 6): 506 mm | Painful Joints (rheumatoid arthritis; [11]): 32 | Swollen Joints (rheumatoid arthritis; [11]): 9 | Painful Joints (rheumatoid arthritis; [12]): 34 | Swollen Joints (rheumatoid arthritis; [12]): 27 | Painful Joints (rheumatoid arthritis; [13]): 28 | Swollen Joints (rheumatoid arthritis; [13]): 25 | Painful Joints (rheumatoid arthritis; [14]): 36 | Swollen Joints (rheumatoid arthritis; [14]): 22 | Painful Joints (rheumatoid arthritis; [15]): 27 | Swollen Joints (rheumatoid arthritis; [15]): 23 | Painful Joints (rheumatoid arthritis; [16]): 26 | Swollen Joints (rheumatoid arthritis; [16]): 14 | PIP Joint Measurement (Totals, in mm) (rheumatoid arthritis; [17]): 560 mm | Performance Index (total score on nine function parameters, each 0 to 10) (rheumatoid arthritis; [17]): 30 | PIP Joint Measurement (Totals, in mm) (rheumatoid arthritis; [18]): 548 mm | Performance Index (total score on nine function parameters, each 0 to 10) (rheumatoid arthritis; [18]): 36 | PIP Joint Measurement (Totals, in mm) (rheumatoid arthritis; [19]): 549 mm | Performance Index (total score on nine function parameters, each 0 to 10) (rheumatoid arthritis; [19]): 32 | PIP Joint Measurement (Totals, in mm) (rheumatoid arthritis; Pt. # 3, CdA treatment course 4): 602 mm | Painful Joints (rheumatoid arthritis; [20]): 36 | Swollen Joints (rheumatoid arthritis; [20]): 16 | Painful Joints (rheumatoid arthritis; [21]): 40 | Swollen Joints (rheumatoid arthritis; [21]): 17 | Painful Joints (rheumatoid arthritis; [22]): 54 | Swollen Joints (rheumatoid arthritis; [22]): 14 | Painful Joints (rheumatoid arthritis; [23]): 59 | Swollen Joints (rheumatoid arthritis; [23]): 11 | time for monocyte numbers to return to approximately pre-treatment number (rheumatoid arthritis; after infusion of CdA was stopped for each cycle): within about ten days | arthritic disease states at follow-up (rheumatoid arthritis; all three patients, reported by personal physicians): had improved | total white cell count drop from pretreatment values (rheumatoid arthritis; follow-up, two patients, lasted about three years and over one year post treatment): about 50% | adverse event leading to drop-out (rheumatoid arthritis; one patient, after CdA treatment): overwhelming fatigue phenomenon | monocyte number (rheumatoid arthritis; patient 1, during each CdA administration cycle, 0.1 mg/kg per day, five days): dropped to substantially zero | neutrophil and platelet numbers (rheumatoid arthritis; patient 1, throughout the one hundred days of the study): substantially constant | patients with a reduction in the number of painful or swollen joints (rheumatoid arthritis; three rheumatoid arthritis patients): two of the three patients | IC50 [1]: 4 µM | exposure time at which decreases in ATP and cell viability were first evident (human monocytes): 16 h | monocyte NAD content (human monocytes; first four hours of exposure): > 95% of control NAD
